# Test results: US12564206B2, “Multi-supplement food-additive” (THE GOVERNING COUNCIL OF THE UNIVERSITY OF TORONTO, priority 2019, dated 2026)
# Like-named read-outs stand apart in the source and are kept apart here.
# Tests used:
# [1] = L*a*b* colour analysis of salt sprayed with folic acid; type: physicochemical
# Procedure: While this example was successful, it was observed that the addition of folic acid by spraying can impact the colour of the salt (i.e. a yellow color is observed), which may impact the acceptance of the salt. Accordingly, the inclusion of the folic acid in the premix was evaluated. […] The two other premix samples contained an iron micronutrient, folic acid, and vitamin B12; in one of these two, all of the micronutrients were in the core of the premix, while in the other, folic acid was separated from the iron micronutrient and vitamin B12 by a layer of TiO2.
# [2] = Stability of spray solutions on storage; settings: for retained in spray solution: after 2 months of storage
# Procedure: Formulation and Storage of Spray Solution: Seven sets of spray solutions were formulated, containing folic acid, vitamin B12, iodine, sodium ascorbate, sodium citrate and/or sodium carbonate, as described in Table 1. The stability of the solutions was monitored for 2 months at 25, 35, and 45 degrees C.
# (§1) Folic Acid Analysis: For the spray solution, samples were diluted with 0.1 M Na2CO3 at ratio 1:1000 v/v and the absorbance of the resulting solution was read at 285 nm. For the salt samples, 5 g aliquots were dissolved in 0.1 M Na2CO3 (10 mL) in a falcon tube. The solution was mixed on a vortex mixer for 2 minutes and filtered with a 0.45 μm syringe filter. The absorbance of the filtrate was immediately read at 285 nm.
# (§2) Iodine Analysis: Method 33.149, described by the Association of Official Analytical Chemists (AOAC), was used for iodine quantification in salt and spray solutions (Association of Official Analytical Chemists, 1984). In this method, iodate is reduced to iodine and titrated with sodium thiosulfate using a starch indicator.
# Vitamin B12 Analysis: The iron-B12 premix was pulverized with a mortar and pestle. The pulverized premix (5 g) was weighed into 50 mL falcon tube, and 10 mL of RO water was added and mixed with a vortex mixer for 2 minutes. This was centrifuged for 2 minutes. The supernatant was filtered with a 0.45 micron filter. Vitamin B12 in the filtrate was quantified using UHPLC-MS.
# [3] = cited from earlier work
# [4] = 30 min, 2 mg/mL
# Procedure: The effect of boiling on the stability of folic acid and vitamin B12 was assessed, in order to mimic food preparation. A known amount of folic acid (0.5 g) was weighed into 250 ml of boiling water. Boiling was continued for 30 minutes. At 1, 5, 10, 15, 20, 25, and 30 minutes, the solution was made up to 250 ml, and then 1 ml of the solution was measured out into a centrifuge vial. The same procedure was followed for B12.
# [5] = Accelerated kinetic study of folic acid and iodine degradation in spray solution; type: physicochemical; settings: for degradation constant in spray solution: first order; for activation energy for degradation in the solution: Arrhenius plot
# Procedure: An accelerated kinetic study was conducted to evaluate the stability of the micronutrients in the premixes and solution. The stability of folic acid and iodine in the spray solution was evaluated, and the stability of B12 in the various premixes was evaluated. The solution and premix were stored at 50, 60, 70 and 80 degrees C. for 7 days. For the solution, samples (250 mL) were stored in 400 mL Fisherbrand Glass Bottles. About 1 mL of the samples were collected from the bottles at days 1, 3, 5 and 7, and stored at −20 degrees C. before analysis. For the premix, 1 g was weighed into aluminium weighing dishes. At days 1, 3, 5 and 7, samples were pulverized in a mortar and pestle. Vitamin B12 was extracted with 0.1 M Na2CO3. The crude extract was filtered (0.45 um) and stored at −20 degrees C. before analysis.
# [6] = Stability of folic acid and iodine in fortified salt on storage; settings: for micronutrient retained in quadruple fortified salt: 6 months storage at 25, 35 and 45 degrees C, 60-70% RH, all cases
# Procedure: However, for comparative study, a solution containing folic acid, iodine and vitamin B12 (spray solution 2 in Table 1) was also used. The solutions (2.5 mL) were sprayed on salt (1 kg) inside a ribbon blender and thoroughly mixed for 20 minutes. The salt samples were dried overnight. The dried salt was returned to the ribbon blender and mixed with premix samples for 2 minutes. Iron premix (i.e. particles containing iron without any B12 or other fortificants) and three of the four iron-B12 premixes were used (adding B12 to TiO2 was not further tested). The target concentrations of the fortificants were 1000 microgram/gram iron, 50 microgram/gram iodine, 25 microgram/gram folic acid and 0.25 microgram/gram vitamin B12.
# The fortified salts were divided by solid sample splitter glassware into three portions. Each portion was stored at ambient conditions (25 degrees C.), 35 degrees C. and 60-70% RH, and 45 degrees C. and 60-70% RH. The stability of folic acid and iodine in the salt was monitored over a period of six months.
# as §1, §2
# [7] = Earlier double fortified salt, storage stability; type: physicochemical; settings: 5 month period, ambient conditions
# Text: Applicant has previously attempted to develop folic acid and iodine spray solutions to investigate the stability of triple fortified salt containing iodine, folic acid and microencapsulated ferrous fumarate.
# [8] = Stability of vitamin B12 in iron-B12 premix on storage; type: physicochemical; settings: room temperature, six months; premix made by three approaches (core, spray, HPMC)
# Text: Production of Iron-B12 Premix: Given the instability of vitamin B12 in the spray solutions (as described below with respect to FIG. 4), vitamin B12 was removed from the spray solutions and incorporated into separate particles with the iron micronutrient, as a multi-supplement food-additive, described above (also referred to herein as an ‘iron-B12 premix’). For the iron-B12 premix, 25% TiO2 was used for color masking, and 5% HPMC and 5% soy stearin as the encapsulating coating. […] The stability of vitamin B12 in each iron-B12 premix was evaluated for six months.
# This was centrifuged for 2 minutes.
# [9] = 12.5 microgram/gram folic acid in salt
# [10] = 25 microgram/gram folic acid in salt
stability in solution [2],Molecule,retained in spray solution [2],solubility in water [3],degradation constant in spray solution ([5]; 60 degrees C) [day⁻¹],degradation constant in spray solution ([5]; 70 degrees C) [day⁻¹],degradation constant in spray solution ([5]; 80 degrees C) [day⁻¹],activation energy for degradation in the solution [5] [kJ/mol],micronutrient retained in quadruple fortified salt [6],micronutrient retained in double fortified salt [7] [%],further results
very stable,Nc1nc2ncc(CNc3ccc(C(=O)N[C@@H](CCC(=O)O)C(=O)O)cc3)nc2c(=O)[nH]1 [folic acid],~80%,sparingly soluble,0.0349,0.0411,0.0531,20.60,74-97%,100,"L* of salt [1, 9]: 95.43; a* of salt [1, 9]: −1.53; b* of salt [1, 9]: 8.44; L* of salt [1, 10]: 94.27; a* of salt [1, 10]: −2.92; b* of salt [1, 10]: 13.50; retained after boiling [4]: About 93%; improvement of folic acid stability with vitamin B12 in core vs other parts of the premix ([6]; QFS, six months, all temperatures): 11-15%"
,"II [iodine, potassium iodate]",about 90%,,0.0337,0.0432,0.0568,25.49,85-100%,100,"stability in solution ([2]; the spray solutions (FIG. 4)): very stable; improvement of iodine stability with vitamin B12 in core vs other parts of the premix ([6]; QFS, 45 degrees C, six months): 6-15%"
very stable,vitamin B12,,very soluble,,,,,,,"vitamin B12 lost in spray solution ([2]; spray solution at lower pH (8), 2 months storage): > 50%; vitamin B12 lost in spray solution ([2]; spray solution pH 9, 2 months storage at 45 degrees C and 70% RH): ~100%; B12 retained in iron-B12 premix [8]: over 97%"
